In PubChem BioAssay (NCI):
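Exposure lasted 48 hours, with cells grown in 96-well plates and compounds tested at five concentrations. TGI marks complete inhibition of growth.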

Legend:
Test in all cases: NCI anticancer screen, dose series, 48 h
MOLT-4 leukemia = test system: MOLT-4 leukemia
HCT-116 colon = test system: HCT-116 colon
NCI-H460 lung = test system: NCI-H460 lung
KM12 colon = test system: KM12 colon
TK-10 renal = test system: TK-10 renal
SK-OV-3 ovarian = test system: SK-OV-3 ovarian
SF-268 CNS = test system: SF-268 CNS
M14 melanoma = test system: M14 melanoma
MDA-N = test system: MDA-N
HT29 colon = test system: HT29 colon
CCRF-CEM leukemia = test system: CCRF-CEM leukemia
HOP-92 NSCLC = test system: HOP-92 NSCLC
A498 renal = test system: A498 renal
NCI-H226 lung = test system: NCI-H226 lung
HL-60(TB) leukemia = test system: HL-60(TB) leukemia
HOP-62 NSCLC = test system: HOP-62 NSCLC
CAKI-1 renal = test system: CAKI-1 renal
SK-MEL-28 melanoma = test system: SK-MEL-28 melanoma
OVCAR-8 ovarian = test system: OVCAR-8 ovarian
LOX IMVI melanoma = test system: LOX IMVI melanoma
RPMI-8226 leukemia = test system: RPMI-8226 leukemia
K-562 leukemia = test system: K-562 leukemia
A549 NSCLC = test system: A549 NSCLC
DU-145 prostate = test system: DU-145 prostate
MALME-3M melanoma = test system: MALME-3M melanoma
UACC-62 melanoma = test system: UACC-62 melanoma
IGROV1 ovarian = test system: IGROV1 ovarian
SF-539 CNS = test system: SF-539 CNS
HS 578T breast = test system: HS 578T breast
SN12C renal = test system: SN12C renal
U251 CNS = test system: U251 CNS
EKVX NSCLC = test system: EKVX NSCLC
UACC-257 melanoma = test system: UACC-257 melanoma
NCI/ADR-RES ovarian = test system: NCI/ADR-RES ovarian
NCI-H23 lung = test system: NCI-H23 lung
SK-MEL-2 melanoma = test system: SK-MEL-2 melanoma
BT-549 breast = test system: BT-549 breast
SF-295 CNS = test system: SF-295 CNS
MDA-MB-435 = test system: MDA-MB-435
NCI-H522 lung = test system: NCI-H522 lung
T-47D breast = test system: T-47D breast
OVCAR-4 ovarian = test system: OVCAR-4 ovarian
MCF7 breast = test system: MCF7 breast
SW-620 colon = test system: SW-620 colon
OVCAR-3 ovarian = test system: OVCAR-3 ovarian
HCT-15 colon = test system: HCT-15 colon
ACHN renal = test system: ACHN renal
COLO 205 colon = test system: COLO 205 colon
OVCAR-5 ovarian = test system: OVCAR-5 ovarian
UO-31 renal = test system: UO-31 renal
SNB-19 CNS = test system: SNB-19 CNS
SK-MEL-5 melanoma = test system: SK-MEL-5 melanoma
MDA-MB-231 breast = test system: MDA-MB-231 breast
PC-3 prostate = test system: PC-3 prostate
RXF 393 renal = test system: RXF 393 renal
HCC-2998 colon = test system: HCC-2998 colon
SNB-75 CNS = test system: SNB-75 CNS

## Cc1ccc(NC(=O)C(Cc2c[nH]c3ccccc23)NC(=O)Oc2ccccc2)cc1C (stereo not given)
MOLT-4 leukemia
  TGI: > 100 µM
HCT-116 colon
  TGI: > 100 µM
NCI-H460 lung
  TGI: > 100 µM
KM12 colon
  TGI: > 100 µM
TK-10 renal
  TGI: 25.5 µM
SK-OV-3 ovarian
  TGI: > 100 µM
SF-268 CNS
  TGI: > 100 µM
M14 melanoma
  TGI: > 100 µM
MDA-N
  TGI: > 100 µM
HT29 colon
  TGI: > 100 µM
CCRF-CEM leukemia
  TGI: > 100 µM
HOP-92 NSCLC
  TGI: > 100 µM
A498 renal
  TGI: 88.4 µM
NCI-H226 lung
  TGI: > 100 µM
HL-60(TB) leukemia
  TGI: > 100 µM
HOP-62 NSCLC
  TGI: > 100 µM
CAKI-1 renal
  TGI: > 100 µM
SK-MEL-28 melanoma
  TGI: > 100 µM
OVCAR-8 ovarian
  TGI: > 100 µM
LOX IMVI melanoma
  TGI: > 100 µM
RPMI-8226 leukemia
  TGI: 80.9 µM
K-562 leukemia
  TGI: > 100 µM
A549 NSCLC
  TGI: > 100 µM
DU-145 prostate
  TGI: > 100 µM
MALME-3M melanoma
  TGI: 99.5 µM
UACC-62 melanoma
  TGI: > 100 µM
IGROV1 ovarian
  TGI: > 100 µM
SF-539 CNS
  TGI: > 100 µM
HS 578T breast
  TGI: > 100 µM
SN12C renal
  TGI: > 100 µM
U251 CNS
  TGI: > 100 µM
EKVX NSCLC
  TGI: > 100 µM
UACC-257 melanoma
  TGI: > 100 µM
NCI/ADR-RES ovarian
  TGI: > 100 µM
NCI-H23 lung
  TGI: > 100 µM
SK-MEL-2 melanoma
  TGI: > 100 µM
BT-549 breast
  TGI: > 100 µM
SF-295 CNS
  TGI: > 100 µM
MDA-MB-435
  TGI: > 100 µM
NCI-H522 lung
  TGI: > 100 µM
T-47D breast
  TGI: > 100 µM
OVCAR-4 ovarian
  TGI: > 100 µM
MCF7 breast
  TGI: > 100 µM
SW-620 colon
  TGI: > 100 µM
OVCAR-3 ovarian
  TGI: > 100 µM
HCT-15 colon
  TGI: > 100 µM
ACHN renal
  TGI: > 100 µM
COLO 205 colon
  TGI: > 100 µM
OVCAR-5 ovarian
  TGI: > 100 µM
UO-31 renal
  TGI: > 100 µM
SNB-19 CNS
  TGI: > 100 µM
SK-MEL-5 melanoma
  TGI: > 100 µM
MDA-MB-231 breast
  TGI: > 100 µM
PC-3 prostate
  TGI: > 100 µM
RXF 393 renal
  TGI: > 100 µM

## CC(=O)OC1C(C)OC(OC(=O)C2CCC3C(C2)OC2(CC(OC(=O)/C=C/c4ccccc4)C(C)CO2)C32CO2)C(OC2OC(C)C(O)C(OC(C)=O)C2O)C1O (stereo not given)
MOLT-4 leukemia
  TGI: < 0.01 µM
NCI-H460 lung
  TGI: < 0.0125 µM
KM12 colon
  TGI: < 0.0123 µM
TK-10 renal
  TGI: > 100 µM
SK-OV-3 ovarian
  TGI: > 100 µM
SF-268 CNS
  TGI: < 0.0136 µM
M14 melanoma
  TGI: 0.104 µM
MDA-N
  TGI: < 0.01 µM
HT29 colon
  TGI: < 0.01 µM
A498 renal
  TGI: 0.286 µM
NCI-H226 lung
  TGI: < 0.01 µM
HOP-62 NSCLC
  TGI: > 100 µM
LOX IMVI melanoma
  TGI: < 0.01 µM
RPMI-8226 leukemia
  TGI: < 0.01 µM
K-562 leukemia
  TGI: > 100 µM
DU-145 prostate
  TGI: 0.0213 µM
MALME-3M melanoma
  TGI: < 0.01 µM
UACC-62 melanoma
  TGI: < 0.01 µM
IGROV1 ovarian
  TGI: < 0.01 µM
HS 578T breast
  TGI: < 0.01 µM
SN12C renal
  TGI: < 0.01 µM
U251 CNS
  TGI: < 0.01 µM
EKVX NSCLC
  TGI: 1.27 µM
UACC-257 melanoma
  TGI: < 0.0137 µM
HCC-2998 colon
  TGI: < 0.01 µM
NCI-H23 lung
  TGI: < 0.01 µM
SK-MEL-2 melanoma
  TGI: < 0.01 µM
BT-549 breast
  TGI: < 0.0335 µM
SF-295 CNS
  TGI: < 0.0304 µM
MDA-MB-435
  TGI: < 0.01 µM
MCF7 breast
  TGI: > 100 µM
SNB-75 CNS
  TGI: < 0.01 µM
HCT-15 colon
  TGI: 5.8 µM
ACHN renal
  TGI: 1.19 µM
COLO 205 colon
  TGI: > 100 µM
OVCAR-5 ovarian
  TGI: 0.0407 µM
UO-31 renal
  TGI: 2.96 µM
SK-MEL-5 melanoma
  TGI: 0.165 µM
PC-3 prostate
  TGI: 0.0402 µM
RXF 393 renal
  TGI: < 0.0434 µM
